Measurements as given in patent US20260274894A1, “CYCLIC POLYPEPTIDE COMPOUND AND USE THEREOF” (BIVISION PHARMACEUTICALS, INC., priority 2023, published 2026).
Read-outs that look alike come from different tables or passages of the source. Numbered stars: 1 amine (or outer) side, 2 acyl side, 3 side chain; on linkers, the order of the positions; unused ones are H or OH. Bridge positions count the residues as written; N and C are the ends. Square brackets hold non-standard residues; d marks the D form. Side chains are listed from the residue outwards. Peptide text beside a SMILES is read from it. * marks the point of attachment. ξ: configuration not given here. NH(CH2)2O(CH2)2NHDOTA = O=C(O)CN1CCN(CC(=O)O)CCN(CC(=O)NCCOCCN*)CCN(CC(=O)O)CC1; X5 = CCCCCC(=O)N[C@@H](CSCc1cccc(C[*:2])c1)C(=O)N1CCC[C@@H](NC(=O)[*:1])C1; X6 = CCCCCC(=O)N[C@@H](CSCc1cccc(C[*:2])c1)C(=O)C1CCC[C@@H](CC(=O)[*:1])C1; DOTA = O=C(O)CN1CCN(CC(=O)O)CCN(CC(=O)*)CCN(CC(=O)O)CC1; Azetidine3carboxylic = O=C(C1CN([*:1])C1)[*:2]; mXylylene = c1cc(C[*:1])cc(C[*:2])c1; Cha = N[C@@H](CC1CCCCC1)C(=O)O; ξQ = NC(=O)CCC(N)C(=O)O; Hexanoyl = CCCCCC(=O)*; AEEA = NCCOCCOCC(=O)O; Ahx = NCCCCCC(=O)O; ξP = O=C(O)C1CCCN1

How the values were obtained:
[1] = Determination of C Log P (n-octanol/water partition, gamma counts); type: physicochemical
Description: Two EP tubes were taken, and 100 μL of saturated n-octanol aqueous solution and 80 µL of pure water were added to each tube, respectively. […] After shaking and mixing for 2 hours, the tubes were centrifuged at room temperature at 2000 rpm/min for 5 minutes. 20 μL was taken from the upper layer (lipid layer) and lower layer (aqueous layer) of each tube, and gamma counts were measured.

HT1080 2 # = assay: Therapeutic results of ^177Lu-labeled compound in tumor-bearing mice (tumor volume); type: in vivo, Balb/c Nude mice
Description: The body weight and tumor size were measured.

SMILES	logP [1]	logP ([1]; read-out: ClogP)	other results
CCCCCC(=O)N[C@H]1CCCCn2cc(nn2)CSC[C@@H](C(=O)N[C@@H](CCCCNC(=O)COCCNC(=O)CN2CCN(CC(=O)O)CCN(CC(=O)O)CCN(CC(=O)O)CC2)C(=O)O)NC(=O)[C@H](Cc2ccccc2)NC(=O)[C@H](CCC(N)=O)NC(=O)[C@H]([C@@H](C)O)NC(=O)[C@@H]2CCCN2C(=O)C2CN(C2)C1=O (single isomer, unassigned) [^177Lu -JHDC12, metal not drawn]	-3.81	–	–
CCCCCC(=O)N[C@H]1CSCc2cccc(c2)CSC[C@@H](C(=O)N[C@@H](CCC(=O)NCCOCCNC(=O)CN2CCN(CC(=O)O)CCN(CC(=O)O)CCN(CC(=O)O)CC2)C(=O)O)NC(=O)[C@H](Cc2ccccc2)NC(=O)[C@H](CCC(N)=O)NC(=O)[C@H]([C@@H](C)O)NC(=O)[C@@H]2CCCN2C(=O)C2CN(C2)C1=O [^177Lu -JHDC06, metal not drawn] (Hexanoyl-C[Azetidine3carboxylic]PTQFCE(NH(CH2)2O(CH2)2NHDOTA)-OH; linker 1-7 via mXylylene)	-2.69	–	–
CCCCCC(=O)N[C@H]1CSCc2cccc(c2)CSC[C@@H](C(=O)N[C@@H](CCCCNC(=O)CCCCCNC(=O)CN2CCN(CC(=O)O)CCN(CC(=O)O)CCN(CC(=O)O)CC2)C(=O)O)NC(=O)[C@H](CC2CCCCC2)NC(=O)C(CCC(N)=O)NC(=O)[C@H]([C@@H](C)O)NC(=O)C2CCCN2C(=O)C[C@@H]2CCCC(C2)C1=O (stereo partly drawn) [^177Lu -JHDC13, metal not drawn] ([ξP]T[ξQ][Cha]CK([Ahx-DOTA])-OH; linker N-5 via X6)	-1.3	–	–
CCCCCC(=O)N[C@H]1CSCc2cccc(c2)CSC[C@@H](C(=O)N[C@@H](CCCCNC(=O)COCCOCCNC(=O)CN2CCN(CC(=O)O)CCN(CC(=O)O)CCN(CC(=O)O)CC2)C(=O)O)NC(=O)[C@H](CC2CCCCC2)NC(=O)[C@H](CCC(N)=O)NC(=O)[C@H]([C@@H](C)O)NC(=O)[C@@H]2CCCN2C(=O)N[C@@H]2CCCN(C2)C1=O [^177Lu -JHDC14, metal not drawn] (PTQ[Cha]CK([AEEA-DOTA])-OH; linker N-5 via X5)	-1.39	–	–
CCCCCC(=O)N[C@H]1CSCc2cccc(c2)CSC[C@@H](C(=O)N[C@@H](CCCCNC(=O)COCCOCCNC(=O)CN2CCN(CC(=O)O)CCN(CC(=O)O)CCN(CC(=O)O)CC2)C(=O)O)NC(=O)CNC(=O)[C@H](CC2CCCCC2)NC(=O)[C@H](CCC(N)=O)NC(=O)[C@H]([C@@H](C)O)NC(=O)C2CCCN2C(=O)N[C@@H]2CCCN(C2)C1=O (stereo partly drawn) [^177Lu -JHDC15, metal not drawn] ([ξP]TQ[Cha]GCK([AEEA-DOTA])-OH; linker N-6 via X5)	–	-1.6	–
CCCCCC(=O)N[C@H]1CSCc2cc(CSCCNC(=O)CN3CCN(CC(=O)O)CCN(CC(=O)O)CCN(CC(=O)O)CC3)cc(c2)CSC[C@@H](C(=O)O)NC(=O)[C@H](Cc2ccccc2)NC(=O)[C@H](CCC(N)=O)NC(=O)[C@H]([C@@H](C)O)NC(=O)[C@@H]2CCCN2C(=O)[C@@H]2CCCN2C1=O [^177Lu-FAP-2286, metal not drawn, reference compound]	–	-2.74	Tumor volume (mm^3) (HT1080 2 #; Day 0): 466.80 ± 118.37 mm^3; Tumor volume (mm^3) (HT1080 2 #; Day 2): 630.23 ± 96.79 mm^3; Tumor volume (mm^3) (HT1080 2 #; Day 6): 525.29 ± 100.39 mm^3; Tumor volume (mm^3) (HT1080 2 #; Day 9): 1,041.55 ± 348.07 mm^3; Tumor volume (mm^3) (HT1080 2 #; Day 13): 2,345.02 ± 298.66 mm^3; Tumor volume (mm^3) (HT1080 2 #; Day 16): 3,180.37 ± 697.35 mm^3
